Experimental data: ChEMBL document CHEMBL1132457 (J Med Chem, 1999)

Assays:
[1] = molecular target: T1, Adenosine receptor A3 (Rattus norvegicus) (UniProt P28647); assay type: cell-based; conditions: CHO, 10 mM
T1 sequence (whole entry): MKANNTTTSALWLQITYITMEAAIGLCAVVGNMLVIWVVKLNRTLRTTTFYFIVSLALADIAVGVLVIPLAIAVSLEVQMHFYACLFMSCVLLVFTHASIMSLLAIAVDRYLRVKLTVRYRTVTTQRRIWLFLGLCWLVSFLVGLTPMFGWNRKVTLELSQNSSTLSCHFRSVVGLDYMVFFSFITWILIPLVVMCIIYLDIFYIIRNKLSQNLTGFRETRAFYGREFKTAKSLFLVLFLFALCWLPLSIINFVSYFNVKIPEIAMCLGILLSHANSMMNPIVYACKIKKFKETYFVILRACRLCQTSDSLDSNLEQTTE

[2] = molecular target: Adenosine receptors; A1 & A3 (Homo sapiens) (UniProt P30542+P0DMS8); experiment: Ratio of binding affinity for human adenosine A1 and A3 receptors expressed in HEK293 cells; assay type: cell-based
HEK293 [3] = experiment: Ratio of binding affinity for rat adenosine A2A of striatal membranes and human adenosine A3 receptors expressed in HEK293 cells; assay type: cell-based
Adenosine receptor A3 [4] = molecular target: T2, Adenosine receptor A3 (Homo sapiens, UniProt P0DMS8); experiment: Inhibitory concentration as antagonistic activity against cAMP generation inhibited by IB-MECA in CHO cell membranes transfected with human Adenosine A3 receptor; assay type: functional, cell-based
T2 sequence (P0DMS8 whole entry): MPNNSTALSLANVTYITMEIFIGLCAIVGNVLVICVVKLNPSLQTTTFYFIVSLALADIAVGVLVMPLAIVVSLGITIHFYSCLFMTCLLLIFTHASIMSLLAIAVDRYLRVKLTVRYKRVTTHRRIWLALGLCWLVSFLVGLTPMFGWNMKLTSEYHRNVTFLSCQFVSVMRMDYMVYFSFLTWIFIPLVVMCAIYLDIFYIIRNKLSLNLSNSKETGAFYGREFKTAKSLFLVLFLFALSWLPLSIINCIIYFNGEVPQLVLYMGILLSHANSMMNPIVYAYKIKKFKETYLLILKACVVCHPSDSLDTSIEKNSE

HEK293 [5] = experiment: Ratio of binding affinity for rat adenosine A1 and human adenosine A3 receptors expressed in HEK293 cells; assay type: cell-based
Adenosine receptor A2a [6] = molecular target: T3, Adenosine receptor A2a (Homo sapiens, UniProt P29274); experiment: Displacement of specific [3H]-SCH- 58261 binding at human Adenosine A2A receptor expressed in HEK293 cells; assay type: cell-based
T3 sequence (P29274 whole entry): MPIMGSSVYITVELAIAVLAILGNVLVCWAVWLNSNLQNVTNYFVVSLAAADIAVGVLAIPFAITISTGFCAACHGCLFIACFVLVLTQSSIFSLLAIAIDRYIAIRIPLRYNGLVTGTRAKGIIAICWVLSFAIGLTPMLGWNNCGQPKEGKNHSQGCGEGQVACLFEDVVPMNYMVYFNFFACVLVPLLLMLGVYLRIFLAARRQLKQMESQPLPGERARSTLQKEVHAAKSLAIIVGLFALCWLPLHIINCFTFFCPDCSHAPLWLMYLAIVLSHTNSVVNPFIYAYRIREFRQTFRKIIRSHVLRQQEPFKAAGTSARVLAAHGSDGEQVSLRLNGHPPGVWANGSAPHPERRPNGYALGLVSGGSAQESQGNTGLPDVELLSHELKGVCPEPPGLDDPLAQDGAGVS

Adenosine receptor A1 [7] = molecular target: T4, Adenosine receptor A1 (Homo sapiens, UniProt P30542); experiment: Displacement of [3H]DPCPX from human Adenosine A1 receptor expressed in CHO cells; assay type: cell-based
T4 sequence (P30542 whole entry): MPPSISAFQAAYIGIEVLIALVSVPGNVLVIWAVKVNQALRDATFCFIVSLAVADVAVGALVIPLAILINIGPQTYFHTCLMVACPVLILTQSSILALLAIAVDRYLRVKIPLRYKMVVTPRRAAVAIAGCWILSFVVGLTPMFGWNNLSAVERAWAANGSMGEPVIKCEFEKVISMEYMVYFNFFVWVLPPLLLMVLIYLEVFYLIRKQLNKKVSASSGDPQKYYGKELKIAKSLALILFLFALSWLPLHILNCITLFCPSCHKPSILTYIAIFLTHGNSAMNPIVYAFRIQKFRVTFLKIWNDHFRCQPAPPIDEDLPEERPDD

[8] = molecular target: T5, Adenosine receptor A3 (Homo sapiens) (UniProt P0DMS8); experiment: Percent inhibition of cAMP-accumulation in CHO cells by IB-MECA at 1 uM.; assay type: functional, cell-based
T5 sequence (whole entry): T2 sequence (P0DMS8 whole entry)

Adenosine receptor A3 [9] = molecular target: T2, Adenosine receptor A3; experiment: Inhibitory concentration as antagonistic activity against cAMP generation inhibited by IB-MECA in CHO cell membranes transfected with human A3 receptor; assay type: functional, cell-based
Adenosine receptor A1 [10] = molecular target: T6, Adenosine receptor A1 (Rattus norvegicus, UniProt P25099); experiment: Displacement of [3H]DPCPX from Adenosine A1 receptor of rat brain membranes; assay type: cell membranes, Membrane
T6 sequence (P25099 whole entry): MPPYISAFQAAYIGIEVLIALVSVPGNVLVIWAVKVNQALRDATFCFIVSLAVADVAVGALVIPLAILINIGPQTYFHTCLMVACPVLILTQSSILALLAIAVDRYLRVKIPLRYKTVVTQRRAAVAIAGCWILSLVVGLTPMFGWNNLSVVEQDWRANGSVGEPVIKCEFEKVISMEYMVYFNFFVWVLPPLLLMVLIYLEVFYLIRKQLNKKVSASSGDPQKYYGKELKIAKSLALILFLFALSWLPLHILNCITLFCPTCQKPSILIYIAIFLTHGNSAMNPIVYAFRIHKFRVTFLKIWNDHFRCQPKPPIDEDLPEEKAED

Adenosine receptor A2a [11] = molecular target: Adenosine receptor A2a (Rattus norvegicus, UniProt P30543)
Adenosine receptor A2a (Rattus norvegicus, UniProt P30543), sequence (P30543 whole entry): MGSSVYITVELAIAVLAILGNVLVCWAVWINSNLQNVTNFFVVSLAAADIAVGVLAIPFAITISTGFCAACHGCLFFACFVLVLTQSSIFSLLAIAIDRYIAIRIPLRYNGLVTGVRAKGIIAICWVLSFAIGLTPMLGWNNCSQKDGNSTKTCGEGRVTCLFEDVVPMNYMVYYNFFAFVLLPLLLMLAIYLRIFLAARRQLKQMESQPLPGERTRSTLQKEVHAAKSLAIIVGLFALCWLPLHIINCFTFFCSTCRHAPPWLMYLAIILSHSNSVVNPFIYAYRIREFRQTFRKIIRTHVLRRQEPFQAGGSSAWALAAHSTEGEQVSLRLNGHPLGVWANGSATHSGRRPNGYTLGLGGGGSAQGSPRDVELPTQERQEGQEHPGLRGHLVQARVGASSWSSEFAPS
Description: Displacement of [3H]-SCH- 58261 from Adenosine A2A receptor in rat striatal membranes

[12] = molecular target: T5, Adenosine receptor A3 (Homo sapiens); conditions: CHO, 1 uM
Description: Percent inhibition of cAMP-accumulation in CHO cells expressing hA3 adenosine receptors by IB-MECA at 1 uM.

[13] = molecular target: T5, Adenosine receptor A3 (Homo sapiens); conditions: CHO, 1 uM; remark: listed apart in the source
Description: Perent inhibition of cAMP-accumulation in CHO cells expressing human Adenosine A3 receptor by IB-MECA at 1 uM.

[14] = molecular target: T5, Adenosine receptor A3 (Homo sapiens); experiment: Percent inhibition of cAMP-accumulation in CHO cells by IB-MECA at 1 uM; assay type: functional, cell-based
Adenosine receptor A2a [15] = molecular target: T3, Adenosine receptor A2a; experiment: Displacement of [3H]-SCH- 58261 from human Adenosine A2A receptor expressed in HEK293 cells; assay type: cell-based

Row | inhibition [1] | Ratio [2] | IC50 (Adenosine receptor A3 [4]) | Ki (Adenosine receptor A2a [6]) | Ki (Adenosine receptor A1 [7]) | inhibition [8] | IC50 (Adenosine receptor A3 [9]) | Ki (Adenosine receptor A1 [10]) | Ki (Adenosine receptor A2a [11]) | inhibition [12] | inhibition [13] | inhibition [14] | Ki (Adenosine receptor A2a [15]) | Structure (SMILES) | Ratio (HEK293 [3]) | Ratio (HEK293 [5])
1 | 2% | 0.016 | 0.0402 µM | 0.00255 µM | 0.01 µM |  |  |  |  |  |  |  |  | CCCn1cc2c(nc(N)n3nc(-c4ccco4)nc23)n1 | 0.03 | 0.22
2 | 39% |  |  |  |  |  | 0.0065 µM | > 10 µM | > 10 µM | 88% |  |  |  | CCn1cc2c(nc(NC(=O)Nc3ccc(OC)cc3)n3nc(-c4ccco4)nc23)n1 |  | 
3 | 37% |  |  |  |  |  |  |  |  |  | 89% |  |  | CCCn1cc2c(nc(NC(=O)Nc3ccc(OC)cc3)n3nc(-c4ccco4)nc23)n1 |  | 
4 | 20% |  |  | 0.202 µM | 1.5 µM |  |  |  |  |  |  | 50% |  | O=C(Nc1cccc(Cl)c1)Nc1nc2nn(CCCc3ccccc3)cc2c2nc(-c3ccco3)nn12 | 75 | > 234
5 | 37% | 136 |  | 0.124 µM | 0.201 µM | 81% | 0.0124 µM |  |  |  |  |  |  | COc1ccc(NC(=O)Nc2nc3nn(CCc4ccccc4)cc3c3nc(-c4ccco4)nn23)cc1 | 951 | 872
6 | 20% |  |  |  | 0.03 µM |  | 0.0053 µM |  | > 10 µM | 87% |  |  | 1.22 µM | CCCn1cc2c(nc(NC(=O)Nc3cccc(Cl)c3)n3nc(-c4ccco4)nc23)n1 |  | 
7 | 30% | 19 |  | 0.11 µM | 0.251 µM | 62% |  |  |  |  |  |  |  | O=C(Nc1cccc(Cl)c1)Nc1nc2nn(CCc3ccccc3)cc2c2nc(-c3ccco3)nn12 | 128 | 79
8 | 11% | 12.6 |  | 1.02 µM | 0.251 µM | 56% |  |  |  |  |  |  |  | COc1ccc(NC(=O)Nc2nc3nn(CCCc4ccccc4)cc3c3nc(-c4ccco4)nn23)cc1 | > 504 | 76.4
9 | 12% |  |  | 0.00031 µM | 0.001 µM | 5% |  |  |  |  |  |  |  | Nc1nc2nn(CCc3ccccc3)cc2c2nc(-c3ccco3)nn12 |  | 
10 | 1% | 0.0014 |  | 0.0019 µM | 0.005 µM | 3% |  |  |  |  |  |  |  | CCn1cc2c(nc(N)n3nc(-c4ccco4)nc23)n1 | 0.003 | 0.03
11 | 36% |  | 0.0151 µM | 0.185 µM | 0.249 µM |  |  |  |  | 71% |  |  |  | CCn1cc2c(nc(NC(=O)Nc3cccc(Cl)c3)n3nc(-c4ccco4)nc23)n1 |  | 

Row | Structure (SMILES) | inhibition [1] | Ratio [2] | IC50 (Adenosine receptor A3 [4]) | Ki (Adenosine receptor A2a [6]) | Ki (Adenosine receptor A1 [7]) | inhibition [8] | IC50 (Adenosine receptor A3 [9]) | Ki (Adenosine receptor A1 [10]) | Ki (Adenosine receptor A2a [11]) | inhibition [12] | inhibition [13] | inhibition [14] | Ki (Adenosine receptor A2a [15]) | Ratio (HEK293 [3]) | Ratio (HEK293 [5])
12 | Nc1nc2nn(CCCc3ccccc3)cc2c2nc(-c3ccco3)nn12 | 32% | 0.001 |  | 0.00018 µM | 0.003 µM | 6% |  |  |  |  |  |  |  | 0.0002 | 0.004
